Results reported in PubChem BioAssay (NCI).
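Where inhibition never reached the appropriate level, the endpoint shown equals the highest concentration tested. Otherwise, values were interpolated linearly from a five-concentration, 48-hour dose response in 96-well plates. At the GI50, growth is halved. At the TGI there is no net growth.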

Columns and labels:
Assay in all cases: inhibition of tumour cell growth, NCI panel, 48 h
SF-295 CNS = system: SF-295 CNS
NCI-H522 lung = system: NCI-H522 lung
TK-10 renal = system: TK-10 renal
786-0 renal = system: 786-0 renal
ACHN renal = system: ACHN renal
SF-539 CNS = system: SF-539 CNS
PC-3 prostate = system: PC-3 prostate
NCI/ADR-RES ovarian = system: NCI/ADR-RES ovarian
SN12C renal = system: SN12C renal
SK-MEL-2 melanoma = system: SK-MEL-2 melanoma

| Structure (SMILES) | TGI (SF-295 CNS) | TGI (NCI-H522 lung) | TGI (TK-10 renal) | TGI (786-0 renal) | TGI (ACHN renal) | TGI (SF-539 CNS) | TGI (PC-3 prostate) | TGI (NCI/ADR-RES ovarian) | TGI (SN12C renal) | TGI (SK-MEL-2 melanoma) | GI50 (SF-295 CNS) | GI50 (NCI-H522 lung) | GI50 (TK-10 renal) | GI50 (786-0 renal) | GI50 (ACHN renal) | GI50 (SF-539 CNS) | GI50 (SN12C renal) |
| --- | --- | --- | --- | --- | --- | --- | --- | --- | --- | --- | --- | --- | --- | --- | --- | --- | --- |
| CC(C)(C)OC(=O)NCC(CNC(=O)OC(C)(C)C)C(N)=O | > 100 µM | > 100 µM | > 100 µM | > 100 µM | > 100 µM | > 100 µM | > 100 µM | > 100 µM | > 100 µM |  |  |  |  |  |  |  |  |
| Cc1ccc(OCC2CO2)c(Br)c1 (centres undefined) | 63.7 µM |  | > 100 µM | 62 µM | 21.2 µM | 29.9 µM | > 100 µM | 33 µM | 45 µM |  |  |  |  |  |  |  |  |
| CSC(=O)C[C@@]12O[C@@H]([C@@H](C)C3CCC4[C@@H]5C(O)CC6=CC(=O)C=C[C@]6(C)C5CC[C@@]43C)C[C@](C)(O1)C(C)(C)O2 (some centres undefined) | 28.6 µM | 30 µM | 34.8 µM | 30.2 µM |  | 30.7 µM |  |  | 31.5 µM | 45 µM |  |  |  |  |  |  |  |
| O=C(O)/C=C/c1ccc(Oc2ccccc2C(=O)O)o1 | > 10 µM | > 10 µM | > 10 µM | > 10 µM | > 10 µM | > 10 µM | > 10 µM | > 10 µM | > 10 µM |  |  |  |  |  |  |  |  |
| Cc1ccc(/C=C/C(=O)c2ccc(Cl)c(Cl)c2)cc1 | > 100 µM | > 100 µM | > 100 µM | > 100 µM | > 100 µM |  |  |  | > 100 µM | > 100 µM |  |  |  |  |  |  |  |
| CCN(CC)CCN(CC)CC.CCN(CC)CCN(CC)CC.[Cu+2].[Cu+2].[O-][Cl+3]([O-])([O-])[O-].[OH3+].[OH3+] | 98.9 µM | 55.2 µM | > 100 µM | > 100 µM | > 100 µM | > 100 µM |  |  | > 100 µM |  | 34.4 µM | 25.6 µM | 96.7 µM | 46 µM | > 100 µM | > 100 µM | 90.7 µM |
| O=C1Nc2c(Cl)cc(Cl)cc2/C1=N/N=C/c1ccco1 | > 100 µM |  | > 100 µM | > 100 µM | > 100 µM | > 100 µM | > 100 µM | 82.1 µM | 82.1 µM | 57.1 µM |  |  |  |  |  |  |  |
| CCOC(=O)C12CCCC1(O)N(NC(=O)OC)C(C)=C2C(=O)OC (centres undefined) | > 10 µM | > 100 µM | > 100 µM | 92.2 µM | > 100 µM | > 100 µM |  |  | > 100 µM | 47.3 µM |  |  |  |  |  |  |  |
| CC1(C)Oc2ccc3ccc(=O)oc3c2C(O)C1O (centres undefined) | > 100 µM | > 100 µM |  | > 100 µM | > 100 µM | 47.8 µM | > 100 µM | > 100 µM | > 100 µM | > 100 µM |  |  |  |  |  |  |  |
| CC(C)(C)C(=O)N1C(C(=O)O)Cc2ccccc2[C@@H]1Cc1ccccc1 (some centres undefined) | > 100 µM | > 100 µM | > 100 µM | > 100 µM | > 100 µM | > 100 µM |  |  | > 100 µM | > 100 µM |  |  |  |  |  |  |  |
| Cc1cccc(-c2nnc3s/c(=C\c4ccc(N(C)C)cc4)c(=O)n23)c1 | > 100 µM | > 100 µM | > 100 µM | > 100 µM | > 100 µM | > 100 µM |  |  | > 100 µM | > 100 µM |  |  |  |  |  |  |  |
| CCOC(=O)C1(C(=O)OCC)C(C(C)(C)C)=C(C)c2ccccc21 | 30.2 µM | 22.2 µM | 72.4 µM | 29.7 µM | 28 µM | 32.8 µM |  |  | 28.7 µM | 37.6 µM |  |  |  |  |  |  |  |
